From PubChem BioAssay (NCI)
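48-hour exposure; five concentrations; linearly interpolated endpoints. GI50 is the concentration that inhibits growth by half. TGI marks complete inhibition of growth.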

Legend:
Test in all cases: NCI-60 cell line screen, 48 h
SN12C renal = system: SN12C renal
MOLT-4 leukemia = system: MOLT-4 leukemia
KM12 colon = system: KM12 colon
SR leukemia = system: SR leukemia
HCT-116 colon = system: HCT-116 colon
HT29 colon = system: HT29 colon
NCI-H23 lung = system: NCI-H23 lung
SK-MEL-5 melanoma = system: SK-MEL-5 melanoma
M14 melanoma = system: M14 melanoma
UACC-62 melanoma = system: UACC-62 melanoma
TK-10 renal = system: TK-10 renal
786-0 renal = system: 786-0 renal
OVCAR-8 ovarian = system: OVCAR-8 ovarian
SF-295 CNS = system: SF-295 CNS
A498 renal = system: A498 renal
COLO 205 colon = system: COLO 205 colon
SNB-19 CNS = system: SNB-19 CNS
MDA-MB-231 breast = system: MDA-MB-231 breast
HOP-92 NSCLC = system: HOP-92 NSCLC
SK-MEL-28 melanoma = system: SK-MEL-28 melanoma
MALME-3M melanoma = system: MALME-3M melanoma
HOP-62 NSCLC = system: HOP-62 NSCLC
HL-60(TB) leukemia = system: HL-60(TB) leukemia
OVCAR-5 ovarian = system: OVCAR-5 ovarian
ACHN renal = system: ACHN renal
DU-145 prostate = system: DU-145 prostate
OVCAR-3 ovarian = system: OVCAR-3 ovarian
UACC-257 melanoma = system: UACC-257 melanoma
LOX IMVI melanoma = system: LOX IMVI melanoma
NCI-H460 lung = system: NCI-H460 lung
SNB-75 CNS = system: SNB-75 CNS
MCF7 breast = system: MCF7 breast
OVCAR-4 ovarian = system: OVCAR-4 ovarian
NCI/ADR-RES ovarian = system: NCI/ADR-RES ovarian
CCRF-CEM leukemia = system: CCRF-CEM leukemia
NCI-H226 lung = system: NCI-H226 lung
MDA-MB-435 = system: MDA-MB-435
IGROV1 ovarian = system: IGROV1 ovarian
UO-31 renal = system: UO-31 renal
BT-549 breast = system: BT-549 breast
SF-268 CNS = system: SF-268 CNS
SK-MEL-2 melanoma = system: SK-MEL-2 melanoma
A549 NSCLC = system: A549 NSCLC
HS 578T breast = system: HS 578T breast
HCC-2998 colon = system: HCC-2998 colon
K-562 leukemia = system: K-562 leukemia
SW-620 colon = system: SW-620 colon
CAKI-1 renal = system: CAKI-1 renal
U251 CNS = system: U251 CNS
RXF 393 renal = system: RXF 393 renal
T-47D breast = system: T-47D breast
PC-3 prostate = system: PC-3 prostate
NCI-H522 lung = system: NCI-H522 lung
RPMI-8226 leukemia = system: RPMI-8226 leukemia
HCT-15 colon = system: HCT-15 colon
SF-539 CNS = system: SF-539 CNS
SK-OV-3 ovarian = system: SK-OV-3 ovarian

Cn1cc(C2=C(Sc3ccccc3)C(=O)NC2=O)c2ccccc21
GI50 (SN12C renal): > 14.9 µM
TGI (SN12C renal): > 25 µM
GI50 (MOLT-4 leukemia): 7.9 µM
TGI (MOLT-4 leukemia): > 25 µM
GI50 (KM12 colon): > 25 µM
TGI (KM12 colon): > 25 µM
GI50 (SR leukemia): 9.81 µM
TGI (SR leukemia): > 25 µM
GI50 (HCT-116 colon): 7.41 µM
TGI (HCT-116 colon): > 16.9 µM
GI50 (HT29 colon): > 18.7 µM
TGI (HT29 colon): > 25 µM
GI50 (NCI-H23 lung): > 22.2 µM
TGI (NCI-H23 lung): > 25 µM
GI50 (SK-MEL-5 melanoma): > 15.1 µM
TGI (SK-MEL-5 melanoma): > 25 µM
GI50 (M14 melanoma): 24.2 µM
TGI (M14 melanoma): > 25 µM
GI50 (UACC-62 melanoma): > 13.7 µM
TGI (UACC-62 melanoma): > 25 µM
GI50 (TK-10 renal): > 13.6 µM
TGI (TK-10 renal): > 20.4 µM
GI50 (786-0 renal): > 16.4 µM
TGI (786-0 renal): > 25 µM
GI50 (OVCAR-8 ovarian): > 14.2 µM
TGI (OVCAR-8 ovarian): > 25 µM
GI50 (SF-295 CNS): > 25 µM
TGI (SF-295 CNS): > 25 µM
GI50 (A498 renal): > 23.1 µM
TGI (A498 renal): > 25 µM
GI50 (COLO 205 colon): > 16.2 µM
TGI (COLO 205 colon): > 25 µM
GI50 (SNB-19 CNS): > 25 µM
TGI (SNB-19 CNS): > 25 µM
GI50 (MDA-MB-231 breast): 12.1 µM
TGI (MDA-MB-231 breast): > 25 µM
GI50 (HOP-92 NSCLC): 24.5 µM
TGI (HOP-92 NSCLC): > 25 µM
GI50 (SK-MEL-28 melanoma): > 12.8 µM
TGI (SK-MEL-28 melanoma): > 22.7 µM
GI50 (MALME-3M melanoma): > 13.2 µM
TGI (MALME-3M melanoma): > 20.2 µM
GI50 (HOP-62 NSCLC): > 25 µM
TGI (HOP-62 NSCLC): > 25 µM
GI50 (HL-60(TB) leukemia): 8.4 µM
TGI (HL-60(TB) leukemia): 23.5 µM
GI50 (OVCAR-5 ovarian): > 25 µM
TGI (OVCAR-5 ovarian): > 25 µM
GI50 (ACHN renal): 6.23 µM
TGI (ACHN renal): > 17.3 µM
GI50 (DU-145 prostate): 13.8 µM
TGI (DU-145 prostate): > 25 µM
GI50 (OVCAR-3 ovarian): 9.57 µM
TGI (OVCAR-3 ovarian): > 22.5 µM
GI50 (UACC-257 melanoma): > 12 µM
TGI (UACC-257 melanoma): > 21.2 µM
GI50 (LOX IMVI melanoma): 4.7 µM
TGI (LOX IMVI melanoma): 10.2 µM
GI50 (NCI-H460 lung): > 25 µM
TGI (NCI-H460 lung): > 25 µM
GI50 (SNB-75 CNS): > 25 µM
TGI (SNB-75 CNS): > 25 µM
GI50 (MCF7 breast): 7.83 µM
TGI (MCF7 breast): > 20.6 µM
GI50 (OVCAR-4 ovarian): > 18.3 µM
TGI (OVCAR-4 ovarian): > 25 µM
GI50 (NCI/ADR-RES ovarian): > 25 µM
TGI (NCI/ADR-RES ovarian): > 25 µM
GI50 (CCRF-CEM leukemia): 7.7 µM
TGI (CCRF-CEM leukemia): > 25 µM
GI50 (NCI-H226 lung): > 25 µM
TGI (NCI-H226 lung): > 25 µM
GI50 (MDA-MB-435): 10 µM
TGI (MDA-MB-435): > 25 µM
GI50 (IGROV1 ovarian): 10.5 µM
TGI (IGROV1 ovarian): > 25 µM
GI50 (UO-31 renal): 8.84 µM
TGI (UO-31 renal): > 14.3 µM
GI50 (BT-549 breast): 9.49 µM
TGI (BT-549 breast): > 20.7 µM
GI50 (SF-268 CNS): > 15.2 µM
TGI (SF-268 CNS): > 25 µM
GI50 (SK-MEL-2 melanoma): > 13.6 µM
TGI (SK-MEL-2 melanoma): > 21.8 µM
GI50 (A549 NSCLC): > 22.4 µM
TGI (A549 NSCLC): > 25 µM
GI50 (HS 578T breast): > 18.2 µM
TGI (HS 578T breast): > 25 µM
GI50 (HCC-2998 colon): > 12.3 µM
TGI (HCC-2998 colon): > 18.2 µM
GI50 (K-562 leukemia): 12.9 µM
TGI (K-562 leukemia): > 25 µM
GI50 (SW-620 colon): 9.69 µM
TGI (SW-620 colon): > 16.5 µM
GI50 (CAKI-1 renal): > 18.1 µM
TGI (CAKI-1 renal): > 25 µM
GI50 (U251 CNS): > 25 µM
TGI (U251 CNS): > 25 µM
GI50 (RXF 393 renal): 7.2 µM
TGI (RXF 393 renal): > 17.6 µM
GI50 (T-47D breast): 7.56 µM
TGI (T-47D breast): > 17.2 µM
GI50 (PC-3 prostate): > 25 µM
TGI (PC-3 prostate): > 25 µM
GI50 (NCI-H522 lung): 3.29 µM
TGI (NCI-H522 lung): 8.44 µM
GI50 (RPMI-8226 leukemia): 9.19 µM
TGI (RPMI-8226 leukemia): > 25 µM
GI50 (HCT-15 colon): 7.87 µM
TGI (HCT-15 colon): > 19.1 µM
GI50 (SF-539 CNS): > 25 µM
TGI (SF-539 CNS): > 25 µM
GI50 (SK-OV-3 ovarian): > 25 µM
TGI (SK-OV-3 ovarian): > 25 µM
